These results are taken from patent US20130267558A1, “PHARMACEUTICAL COMPOSITION FOR TREATING OR PREVENTING ALCOHOLIC LIVER DISEASES, CONTAINING CILOSTAZOL AS ACTIVE INGREDIENT” (INDUSTRY-ACADEMIC COOPERATION FOUNDATION YEUNGNAM UNIVERSITY, priority 2010, published 2013).

Assay [1] relates to caspase-3. In words: Caspase-3 activity by Western blotting with cleaved caspase-3 antibody in ethanol-treated liver cells. Type of assay: cell-based, Sprague-Dawley rats or C57BL/6 mouse. The conditions noted are these: pretreatment 100 μM; ethanol 24 hours; FIG. 2. On the procedure:
(§1) Liver cells were separated from Sprague-Dawley rats (8 to 10 weeks) or C57BL/6 (8 to 10 weeks) mouse via in situ collagenase perfusion, and then cultured in DMEM containing 10% FBS, 100 U/ml penicillin, 100 μg/ml streptomycin, 4 mM L-glutamine, and 100 nM dexamethasone. After 3 hours, the culture solution was replaced with DMEM including 0.1% FBS and 10 nM dexamethasone, and then, cultured for 16 hours (overnight). For the treatment, the cells were treated with various concentrations of ethanol (0, 100, 200 mM) alone or together with cilostazol (Otsuka) or pentoxifylline which is used as a therapeutic agent for alcoholic hepatitis, and the resultant cell reactions were compared with each other. After the treatment with ethanol, a culture dish was sealed with a parafilm to prevent evaporation of ethanol.
On the technique in general: In western blotting, separated proteins are transferred to a membrane and probed.

In assay [2] the test system is caspase-3. The assay can be described thus: Liver caspase-3 activity in alcohol-induced acute liver injury animal model. The conditions noted are these: mice; oral 100 mg/kg for 4 days before ethanol 6 g/kg oral; FIG. 9. Type of assay: in vivo. As to the method:
Also, the caspase-3 activity was measured by using an activity assay kit (R&D kit). That is, caspase-3 activity was measured by using a caspase-3 colorimetric assay kit (R&D system, Minneapolis, Minn.). Liver cells were lysed by using lysis buffer, and then the protein (150 μg) was incubated with DEVD-pNA, a caspase-3 substrate at 37° C. for 2 hours, and then absorption of the product was measured at a wavelength of 405 nm.

In assay [3] the test system is caspase-3. In words: Caspase-3 colorimetric activity assay kit (DEVD-pNA) in ethanol-treated liver cells. In kind it is cell-based, Sprague-Dawley rats or C57BL/6 mouse. The conditions noted are these: liver cells pretreated, FIG. 3. As to the method: as §1, with “ethanol. Also, the caspase-3 activity was measured by using an activity assay kit (R&D kit). That is, caspase-3 activity was measured by using a caspase-3 colorimetric assay kit (R&D system, Minneapolis, Minn.). Liver cells were lysed by using lysis buffer, and then the protein (150 μg) was incubated with DEVD-pNA, a caspase-3 substrate at 37° C. for 2 hours, and then absorption of the product was measured at a wavelength of 405 nm.” for “ethanol.”

Another assay relates to TNF-α. In words: LPS-stimulated TNF-α production in RAW264.7 macrophage (ELISA). The conditions noted are these: pretreatment, LPS 50 ng/ml, 4 hours, FIG. 5. In kind it is cell-based. On the procedure:
RAW264.7 cells were obtained from Korean Cell Line Bank and cultured in a DMEM solution containing 10% FBS, 100 U/ml penicillin, and 100 μg/ml streptomycin for use in experiments. To compare direct effects of ethanol with indirect effects caused by endotoxin, effects of LPS were identified. RAW264.7 macrophage prepared as described above was treated with LPS (50 ng/ml) for 4 hours, and then, TNF-α level in the cell culture was measured by using ELISA kit (R&D).
A general note: ELISA stands for enzyme-linked immunosorbent assay.

For assay [4], the system named is primary cultured liver cells. In words: MTS assay, viability of primary cultured liver cells treated with ethanol. The conditions noted are these: pretreatment 100 μM; ethanol 100, 200 mM for 24 hour; vs DMSO group; FIG. 1. Type of assay: cell-based, Sprague-Dawley rats or C57BL/6 mouse. As to the method: as §1, with “ethanol. MTS assay was performed in the following manner to identify effects of cilostazol on decreased liver cell viability caused by ethanol. That is, the viability of liver cells was measured by using a MTS assay kit (Promega, Madison, Wis., USA). […] An MTS solution were added to the respective wells and then, the cells were incubated at 37° C. for 4 hours, and absorption of the result was measured at a wavelength of 490 nm.” for “ethanol.”

The subject of a further assay is RAW264.7 macrophage. In words: LPS-induced ROS production in RAW264.7 macrophage (H2DCFDA, FACS). Type of assay: cell-based. The conditions noted are these: pretreatment 100 μM for 1 hour; LPS 50 ng/ml, 4 hours; FIG. 7. On the procedure: RAW264.7 cells were obtained from Korean Cell Line Bank and cultured in a DMEM solution containing 10% FBS, 100 U/ml penicillin, and 100 μg/ml streptomycin for use in experiments. To compare direct effects of ethanol with indirect effects caused by endotoxin, effects of LPS were identified. RAW264.7 macrophage prepared as described above was treated with LPS (50 ng/ml) for 0 to 18 hours. Separately, RAW264.7 macrophage prepared as described above was pretreated with cilostazol (100 μM) or pentoxifylline (100 μM) for 1 hour and then, treated with LPS (50 ng/ml) for 4 hours. The RAW264.7 macrophages were treated with H2DCFDA (50 μM) for 40 minutes, and then, the production of ROS was evaluated by using FACS.

The subject of assay [5] is FAS (fatty acid synthase) gene. In words: Liver FAS gene expression (real-time PCR) in alcohol-induced acute liver injury animal model. In kind it is in vivo. The conditions noted are these: mice; oral 100 mg/kg for 4 days before ethanol 6 g/kg oral; FAS mRNA normalized to β-actin; FIG. 11. A general note: Real-time PCR tracks product formation cycle by cycle.
Description: Eight-week old mice were subjected to binge alcohol drinking to induce liver damage. That is, mice were administered orally 6 g/kg of ethanol once. Cilostazol was orally administered in doses of 50 mg/kg/day and 100 mg/kg/day for 4 days before ethanol administration, and ethanol was orally administered 1 h after the last cilostazol administration. Then, animals were sacrificed at different time after ethanol administration.
Effects of cilostazol on the expression of FAS gene were identified by real-time PCR assay. That is, total RNA was extracted from liver tissues by using a trizol reagent, and then 1 μg of total RNA was reverse-transcribed into cDNA by using high-performance cDNA reverse transcription kit (Applied Biosystems, Foster City, Calif., USA). The PCR reaction was performed such that cDNA, the respective primers were reacted with power SYBR Green PCR master mix (Applied Biosystems) by using real-time PCR 7500 software system (Applied Biosystem). The PCR conditions were initial incubation at 95° C. for 10 minutes, followed by 45 cycles of 95° C. for 15 seconds, 55° C. for 20 seconds, and 72° C. for 35 seconds.
FAS mRNA level was normalized to β-actin mRNA level, and shown in fold increase.
Assay [6] deals with primary cultured liver cells. The assay can be described thus: Hoechst staining of liver cell apoptosis caused by ethanol. In kind it is cell-based, Sprague-Dawley rats or C57BL/6 mouse. The conditions noted are these: pretreatment; Hoechst 33342; FIG. 4. On the procedure:
Liver cells were separated from Sprague-Dawley rats (8 to 10 weeks) or C57BL/6 (8 to 10 weeks) mouse via in situ collagenase perfusion, and then cultured in DMEM containing 10% FBS, 100 U/ml penicillin, 100 μg/ml streptomycin, 4 mM L-glutamine, and 100 nM dexamethasone. After 3 hours, the culture solution was replaced with DMEM including 0.1% FBS and 10 nM dexamethasone, and then, cultured for 16 hours (overnight).
For the treatment, the cells were treated with various concentrations of ethanol (0, 100, 200 mM) alone or together with cilostazol (Otsuka) or pentoxifylline which is used as a therapeutic agent for alcoholic hepatitis, and the resultant cell reactions were compared with each other. After the treatment with ethanol, a culture dish was sealed with a parafilm to prevent evaporation of ethanol.

Regarding `O=C1CCc2cc(OCCCCc3nnnn3C3CCCCC3)ccc2N1` [cilostazol], the “caspase-3 activity (cleaved caspase-3, Western blot) increased by ethanol, effect of pretreatment” value with caspase-3 [1] was “cilostazol showed better inhibitory effects than pentoxifylline”. Besides, the “liver caspase-3 activity after ethanol administration” value in the assay on caspase-3 [2] is “significantly reduced”. Further, the “caspase-3 activity (activity assay kit) increased by ethanol, effect of pretreatment” value in the assay on caspase-3 [3] is reported as “almost completely inhibited”. In addition, the “decrease of LPS-increased TNF-α level in culture media” value in the assay on TNF-α (p=0.016) was ~50%. The “liver cell viability decreased by ethanol, effect of pretreatment” value in assay [4] was “significantly recovered”. Also, the “production of ROS induced by LPS, effect of pretreatment” value with RAW264.7 macrophage is “neither cilostazol nor pentoxifylline significantly inhibited”. The “reduction of liver FAS gene expression after ethanol administration” value in assay [5] is given as “about 30%”. The “nuclear fragmentation caused by ethanol” value in assay [6] is listed as “reduced”.

On to `CC(=O)CCCCn1c(=O)c2c(ncn2C)n(C)c1=O` [pentoxifylline], for which the “caspase-3 activity (cleaved caspase-3, Western blot) increased by ethanol, effect of pretreatment” value with caspase-3 [1] is recorded as “reduced”. Moreover, the “caspase-3 activity (activity assay kit) increased by ethanol, effect of pretreatment” value in the assay on caspase-3 [3] is on record as “reduced caspase-3 activity caused by ethanol, but the inhibitory effect of pentoxifylline was smaller than that of cilostazol”. Further, the “inhibitory effect on LPS-increased TNF-α level in culture media” value with TNF-α was “did not show significant inhibitory effects”. For the same compound, the “liver cell viability decreased by ethanol, effect of pretreatment” value in assay [4] is “did not significantly improve the cell viability”. Moreover, in the assay with RAW264.7 macrophage, the “production of ROS induced by LPS, effect of pretreatment” value was “neither cilostazol nor pentoxifylline significantly inhibited”.
